Tests used:
[1] = Blood levels after oral gavage; parameters: species or system adult rats; conditions: rat, in vivo
Excerpt: In the treatment of certain localized conditions, the degree of hydrophilicity of the CMT can be of lesser importance. […].

[2] = Solubility in aqueous systems; type: physicochemical
Toxicity in vivo = conditions: 2.0 µg/ml concentration
[3] = Testing in cancer patients (side effects); type: in vivo
[4] = system: Aspergillus fumigatus ATCC 1022; experiment: SABHI agar plate growth inhibition screen; type: cell-based; conditions: for Activity against Aspergillus fumigatus (Example 1): 25 µg/ml SABHI agar; for Growth at 25 µg/ml compared to control at 24 hrs incubation / Growth at 25µg/ml compared to control at 48 hours: Aspergillus Fumigatus, 30°C, growth grade
Procedure: (§1) The following fungi were inoculated onto potato dextrose agar (PDA) from stock cultures and incubated aerobically at 30°C: Aspergillus [NT] 1022, Penicillium sp. (laboratory isolate), Candida albicans, ATCC 14053, and Rhizopus sp. […] Candida albicans was suspended in saline and adjusted to 0.5 MacFarland in a similar manner. These suspensions were diluted 1:100 in sterile 0.9% saline. SABHI Agar (Difco) pH 7.0 was prepared in 100ml amounts and sterilized at 121°C for 15 min. […] The plates were then incubated aerobically for 24 hour and for 48 hours at 30°C.

[5] = system: Candida albicans, ATCC 14053; experiment: SABHI agar plate growth inhibition screen; type: cell-based; conditions: for Growth at 25 µg/ml compared to control at 24 hrs incubation / Growth at 25µg/ml compared to control at 48 hours: Candida Albicans, 30°C, growth grade; for Activity against Candida albicans (Example 1): 25 µg/ml SABHI agar
Procedure: as §1

Rhizopus sp. = experiment: SABHI agar plate growth inhibition screen; type: cell-based; conditions: for Growth at 25 µg/ml compared to control at 24 hrs incubation / Growth at 25µg/ml compared to control at 48 hours: Rhizopus sp., 30°C, growth grade
Procedure: as §1

[6] = system: Penicillium sp. (laboratory isolate); experiment: SABHI agar plate growth inhibition screen; type: cell-based; conditions: for Activity against Penicillium sp. (Example 1): 25 µg/ml SABHI agar; for Growth at 25 µg/ml compared to control at 24 hrs incubation / Growth at 25µg/ml compared to control at 48 hours: Penicillium Sp., 30°C, growth grade
Procedure: as §1

Row | Compound | Blood levels [1] | Solubility in aqueous systems [2] | Toxicity in vivo (Toxicity in vivo) | Side effects [3] | Activity against Aspergillus fumigatus (Example 1) [4] | Growth at 25 µg/ml compared to control at 24 hrs incubation [4] | Growth at 25µg/ml compared to control at 48 hours [4] | Growth at 25 µg/ml compared to control at 24 hrs incubation [5] | Growth at 25µg/ml compared to control at 48 hours [5] | Growth at 25 µg/ml compared to control at 24 hrs incubation (Rhizopus sp.) | Growth at 25µg/ml compared to control at 48 hours (Rhizopus sp.) | Activity against Penicillium sp. (Example 1) [6] | Growth at 25 µg/ml compared to control at 24 hrs incubation [6] | Growth at 25µg/ml compared to control at 48 hours [6] | Activity against Candida albicans (Example 1) [5] | Activity against Rhizopus sp. (Example 1) (Rhizopus sp.; 25 µg/ml SABHI agar)
1 | CN(C)C1C(=O)C(C#N)=C(O)C2(O)C(=O)C3=C(O)c4c(O)cccc4C(C)(O)C3CC12 (stereo not drawn) [CMT-2, tetracyclinonitrile] | no detectable blood levels | low solubility in aqueous systems | – | – | – | – | – | – | – | – | – | – | – | – | – | –
2 | NC(=O)C1=C(O)C[C@@H]2C[C@@H]3Cc4cccc(O)c4C(=O)C3=C(O)[C@]2(O)C1=O [CMT-3, 6-demethyl-6-deoxy-4-de(dimethylamino)tetracycline] | – | – | very little toxicity | without evidence of side effects, except at unusually high doses | – | – | – | – | – | – | – | – | – | – | – | –
3 | CC1(O)c2c(Cl)ccc(O)c2C(=O)C2=C(O)C3(O)C(=O)C(C(N)=O)=C(O)CC3CC21 (stereo not drawn) [CMT-4, 7-chloro-4-de(dimethylamino)tetracycline] | – | – | – | – | demonstrated activity | 0 (complete inhibition of growth.) | 1 (75% reduction in growth in colonies compared to control.) | 1 (75% reduction in growth in colonies compared to control.) | 4 (Level of growth in the absence of anti-fungal agent (control).) | 4 (Level of growth in the absence of anti-fungal agent (control).) | 4 (Level of growth in the absence of anti-fungal agent (control).) | demonstrated activity | 3 (25% reduction in growth of colonies compared to control.) | 0 (complete inhibition of growth.) | – | –
4 | CC1(O)c2cccc(O)c2C(=O)C2=C(O)C3C(=O)C(C(N)=O)=C(O)CC3CC21 (stereo not drawn) [CMT-7, 4-de(dimethylamino)-12α-deoxytetracycline] | – | – | – | – | – | 0 (complete inhibition of growth.) | 4 (Level of growth in the absence of anti-fungal agent (control).) | 0 (complete inhibition of growth.) | 0 (complete inhibition of growth.) | 4 (Level of growth in the absence of anti-fungal agent (control).) | 3 (25% reduction in growth of colonies compared to control.) | – | 3 (25% reduction in growth of colonies compared to control.) | 4 (Level of growth in the absence of anti-fungal agent (control).) | strong activity | –
5 | NC(=O)C1=C(O)C[C@@H]2C[C@@H]3Cc4ccc(N)c(O)c4C(=O)C3=C(O)[C@]2(O)C1=O [CMT-308] | – | – | – | – | demonstrated activity | 0 (complete inhibition of growth.) | 1 (75% reduction in growth in colonies compared to control.) | 4 (Level of growth in the absence of anti-fungal agent (control).) | 4 (Level of growth in the absence of anti-fungal agent (control).) | 4 (Level of growth in the absence of anti-fungal agent (control).) | 4 (Level of growth in the absence of anti-fungal agent (control).) | demonstrated activity | 0 (complete inhibition of growth.) | 0 (complete inhibition of growth.) | – | –
6 | O=C(NCN1CCNCC1)C1=C(O)C[C@@H]2C[C@@H]3Cc4cccc(O)c4C(=O)C3=C(O)[C@]2(O)C1=O [CMT-315] | – | – | – | – | activity against all the fungi tested | 0 (complete inhibition of growth.) | 0 (complete inhibition of growth.) | 0 (complete inhibition of growth.) | 0 (complete inhibition of growth.) | 1 (75% reduction in growth in colonies compared to control.) | 1 (75% reduction in growth in colonies compared to control.) | activity against all the fungi tested | 0 (complete inhibition of growth.) | 0 (complete inhibition of growth.) | activity against all the fungi tested | activity against all the fungi tested

From patent EP1296703B1, “NON-ANTIBACTERIAL TETRACYCLINE AS ANTI-FUNGAL AGENTS” (Liu, Yu, priority 2000, dated 2001)
